One substance from patent US10703775B2, “Method of purifying antifungal compounds and exopolysaccharides from a microbial cell culture” (Bayer CropScience LP, priority 2016, dated 2020) can be followed below.

For this test, the system named is fungal pathogen. Kind of test: Control treatments with processing aids alone on young plants inoculated with fungal pathogen. The class given is in vivo. Particulars: applied alone at final rates similar to those in the pellet fractions; compared with UTC plants. The text has this: GEROPON® (SDOS) and C12EO25 were also each applied to young plants at final rates similar to those in the pellet fractions. The young plants were later inoculated with fungal pathogen and the each plant was scored for percent control of the pathogen relative to the UTC plants.

In the case of “polyoxyethylene (25) dodecyl ether [C12EO25]”, the inherent antifungal activity result is “no inherent antifungal activity”.
